Assay results published in paper PMC6061685 (Toxicological Sciences, 2018).
“Also recorded” adds a separate entry of the source. Where two headings read alike, the source gives them in different places.

Tests used:
ERα [1] = settings: exposure 0–10 µM; ref Charles et al. (2000); cited from earlier work
AR [2] = settings: exposure 0–10 µM; ref Vinggaard et al. (2000); cited from earlier work
AR [3] = settings: exposure 0–100 µM; ref Kizu et al. (2003); cited from earlier work
[4] = biological target: T1, aryl hydrocarbon receptor (AhR) (Rattus norvegicus, UniProt P41738); assay: H4IIE AhR CALUX agonist assay; assay type: cell-based
T1 sequence (P41738 10-853): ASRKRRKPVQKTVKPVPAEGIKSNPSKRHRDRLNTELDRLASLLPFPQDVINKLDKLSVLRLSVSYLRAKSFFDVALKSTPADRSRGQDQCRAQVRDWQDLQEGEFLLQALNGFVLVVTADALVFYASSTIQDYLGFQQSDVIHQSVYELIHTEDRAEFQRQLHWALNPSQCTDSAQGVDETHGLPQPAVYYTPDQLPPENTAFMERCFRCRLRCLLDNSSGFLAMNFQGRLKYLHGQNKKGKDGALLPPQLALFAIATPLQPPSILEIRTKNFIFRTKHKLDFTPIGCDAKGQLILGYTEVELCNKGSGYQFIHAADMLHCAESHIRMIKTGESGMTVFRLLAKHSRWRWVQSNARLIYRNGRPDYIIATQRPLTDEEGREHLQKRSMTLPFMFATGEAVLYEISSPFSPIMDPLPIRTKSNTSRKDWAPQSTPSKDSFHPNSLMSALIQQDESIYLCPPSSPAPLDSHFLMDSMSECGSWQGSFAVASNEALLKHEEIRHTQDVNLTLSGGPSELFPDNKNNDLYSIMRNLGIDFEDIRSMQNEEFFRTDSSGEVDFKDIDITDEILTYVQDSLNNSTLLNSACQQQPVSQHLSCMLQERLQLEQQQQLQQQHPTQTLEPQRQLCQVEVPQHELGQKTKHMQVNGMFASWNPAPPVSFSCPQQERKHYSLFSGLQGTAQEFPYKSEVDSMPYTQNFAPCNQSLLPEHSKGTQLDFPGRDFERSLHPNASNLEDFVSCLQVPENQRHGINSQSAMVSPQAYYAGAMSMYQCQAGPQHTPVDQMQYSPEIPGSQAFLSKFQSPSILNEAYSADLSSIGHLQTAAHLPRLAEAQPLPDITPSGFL

ERα [5] = settings: 10 mg/kg bw/day; ref Kummer et al. (2008); cited from earlier work
[6] = biological target: T2, estrogen receptor alpha (ERα) (Homo sapiens, UniProt P03372); assay: U2OS ERα CALUX antagonist assay; assay type: cell-based; settings: 24 h exposure; with EC50 concentration of E2 (2.7 × 10^−6 µg/ml)
T2 sequence (P03372 1-595): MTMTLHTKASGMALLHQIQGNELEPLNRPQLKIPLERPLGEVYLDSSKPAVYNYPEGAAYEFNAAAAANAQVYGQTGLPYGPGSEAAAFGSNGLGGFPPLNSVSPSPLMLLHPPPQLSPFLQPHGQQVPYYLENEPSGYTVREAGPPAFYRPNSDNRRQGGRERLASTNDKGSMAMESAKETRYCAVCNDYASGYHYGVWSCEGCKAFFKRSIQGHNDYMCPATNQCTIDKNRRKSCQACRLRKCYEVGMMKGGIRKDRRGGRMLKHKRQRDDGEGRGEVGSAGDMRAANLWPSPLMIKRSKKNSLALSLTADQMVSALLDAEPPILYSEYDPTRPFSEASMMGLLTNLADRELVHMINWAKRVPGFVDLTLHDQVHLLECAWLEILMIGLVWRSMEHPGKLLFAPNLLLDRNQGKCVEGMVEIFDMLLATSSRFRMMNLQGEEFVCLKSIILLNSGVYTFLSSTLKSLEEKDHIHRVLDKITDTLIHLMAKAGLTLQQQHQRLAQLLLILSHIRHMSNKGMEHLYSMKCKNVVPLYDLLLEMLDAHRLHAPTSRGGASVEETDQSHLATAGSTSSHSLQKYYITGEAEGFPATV

SMILES | Effects on AR (AR [2]) | Effects on AR (AR [3]) | further results
Oc1ccc2ccc3c4ccccc4cc4ccc1c2c43 [3OH-BaP] |  |  | Effects on ERα (ERα [1]): Hydroxy metabolites of BaP, including 3OH-BaP, 9OH-BaP, and 9, 10OH-BaP, act as ERα agonist.
Cc1c2ccccc2c(C)c2c1ccc1ccccc12 [7, 12-dimethylbenz[a]anthracene] | AR antagonist |  | 
Oc1ccc2cc3ccc4cccc5ccc(c2c1)c3c45 [9OH-BaP] |  |  | Effects on ERα (ERα [1]): Hydroxy metabolites of BaP, including 3OH-BaP, 9OH-BaP, and 9, 10OH-BaP, act as ERα agonist.
c1ccc2cc3ccccc3cc2c1 [Anthracene] | AR antagonist; also recorded: Phenanthrene, Anthracene, Pyrene: antagonize the AR activity just at the highest tested concentration | Anthracene and Pyrene show no AR-mediated activity. | 
c1ccc2c(c1)cc1ccc3cccc4ccc2c1c34 [BaP, benzo[a]pyrene, reference compound] | AR antagonist | AR antagonist (except for anthracene and pyrene) | EC50 [4]: 12.3 nM
c1ccc2cc3c(ccc4ccccc43)cc2c1 [Benz[a]anthracene] | AR antagonist |  | 
c1ccc2cc3c(cc2c1)-c1cccc2cccc-3c12 [Benzo[k]fluoranthene] |  | AR antagonist (except for anthracene and pyrene) | Effects on ERα (ERα [5]): Benzo[k]fluoranthene shows no ERα-mediated activity.
c1ccc2c(c1)-c1cccc3cccc-2c13 [Fluoranthene] | AR antagonist |  | Effects on ERα (ERα [5]): ERα agonist (except for Benzo[k]fluoranthene)
C[C@]12CC[C@@H]3c4ccc(O)cc4C[C@@H](CCCCCCCCC[S+]([O-])CCCC(F)(F)C(F)(F)F)[C@H]3[C@@H]1CC[C@@H]2O (some centres unmarked) [Fulvestrant, fulvestrant] |  |  | ERα Antagonist Assay IC25 [6]: 0.011 ng/mL
c1ccc2c(c1)ccc1ccccc12 [Phenanthrene] | AR antagonist; also recorded: Phenanthrene, Anthracene, Pyrene: antagonize the AR activity just at the highest tested concentration |  | 
c1cc2ccc3cccc4ccc(c1)c2c34 [Pyrene] | AR antagonist; also recorded: Phenanthrene, Anthracene, Pyrene: antagonize the AR activity just at the highest tested concentration | Anthracene and Pyrene show no AR-mediated activity. | 
